Measured values taken from article PMC7910394, “Design of PSMA ligands with modifications at the inhibitor part: an approach to reduce the salivary gland uptake of radiolabeled PSMA inhibitors?” (EJNMMI Radiopharmacy and Chemistry, 2021).

System: LNCaP cells
Test: Internalization study of 177Lu-labeled ligands in LNCaP cells, normalized to ([125I]I-BA)KuE
Assay type: cell-based, human
Conditions: 1 h, 37 °C, 1.0 nM 177Lu-compound, normalized to ([125I]I-BA)KuE
Procedure: PSMA-positive LNCaP cells (300265; Cell Lines Service, Eppelheim, Germany) were cultivated in Dulbecco’s modified Eagle medium/Nutrition Mixture F-12 with GlutaMAX (1/1, DMEM-F12, Thermo Fisher Scientific, Darmstadt, Germany) supplemented with 10% fetal bovine serum (Merck KGaA, Darmstadt, Germany) and kept at 37 °C in a humidified 5% CO2 atmosphere. One day (24 ± 2 h) prior to all in vitro experiments, the cultivated LNCaP cells were harvested using a mixture of trypsin/ethylenediamine-tetraacetic acid (0.05%/0.02%) in PBS (Thermo Fisher Scientific, Darmstadt, Germany) and centrifuged at 1300 rpm (ca. 190×g) for 3 min at room temperature (Heraeus Megafuge 16, Thermo Fisher Scientific, Darmstadt, Germany). After centrifugation, the supernatant was disposed and the cell pellet was resuspended in culture medium. Cells were counted with a Neubauer hemocytometer (Paul Marienfeld GmbH & Co. KG, Lauda-Königshofen, Germany) and seeded in 24-well plates.
Detailed information on affinity and internalization experiments is provided in the supporting information. […] IC50 values of (^natI-BA)KuE were determined on the same day for monitoring assay performance and to identify abnormal deviations in uptake and/or affinity. […] Data were corrected for non-specific binding and normalized to the specific internalization observed for the radioiodinated reference compound (n = 3).
The culture medium was removed and the cells were washed with 500 µL of DMEM-F12 containing 5% BSA. Afterwards, 200 µL of DMEM-F12 (5% BSA) were added to each well and left to equilibrate at 37 °C for 15 min. 25 µL of DMEM-F12 (5% BSA) were added to each well, followed by the addition of 25 µL of the respective ^177Lu-labeled ligand (10.0 nM in DMEM-F12 (5% BSA)). For blocking PSMA-specific binding and uptake, 25 µL of 2-(phosphonomethyl)pentane-1,5-dioic acid (2-PMPA) (100 µM in DMEM (5% BSA)) instead of DMEM-F12 (5% BSA) were added prior to radiotracer addition. […] Each experiment (control and blockade) was performed in triplicate. […] Incubation was terminated by placing the plate on ice (4 °C, 1 min) and removal of the incubation medium. The cells were washed with 250 µL of ice-cold PBS and the wash medium was combined with the respective supernatant. This fraction represents the amount of free radioligand. 250 µL of ice-cold 2-PMPA (10 µM in PBS) were added and the cells were incubated for 10 min at 4 °C. Afterwards, the cells were rinsed again with 250 µL of ice-cold PBS and the wash medium was combined with the respective supernatant. This fraction represents the amount of cell surface-bound ligand. In the last step, the cells were lysed by addition of 250 µL of 1 M aqueous NaOH. After 20 min, the lysate of each well was transferred to the respective vial as well as 250 µL of 1 M NaOH used for rinsing the well. This fraction represents the amount of internalized radioligand. Quantification of the amount of free, cell surface-bound and internalized activity was performed in a γ-counter.

## CC(C)(C)[Si](F)(c1ccc(C(=O)NC[C@@H](NC(=O)CN2CCN(CC(=O)[O-])CCN(CC(=O)[O-])CCN(CC(=O)[O-])CC2)C(=O)N[C@H](CCCCNC(=O)CCC(=O)NCCC[C@@H](NC(=O)CC[C@H](NC(=O)N[C@@H](CCc2nnn[nH]2)C(=O)O)C(=O)O)C(=O)O)C(=O)O)cc1)C(C)(C)C.[Lu+3] [^natLu/[^177Lu]Lu-11]
  %Internalization compared to the reference: 1 h: 9.9 ± 3.2%
Listed as [^177Lu]Lu-11
  %Internalization compared to the reference: 9.9 ± 3.2%
